# Earlier results in patent publication US20250000936A1, “TREATMENT OF GEOGRAPHIC ATROPHY” (Apellis Pharmaceuticals, Inc., priority 2021, published 2025).
# System: complement activation
# Conditions: complement inhibiting activity relative to C-terminally amidated compstatin; cited from earlier work
row,Substance,Activity over compstatin
1,"Ac-ICV(1-Nal)QDWGAHRCT-COOH (N-acetyl, 1-Nal) [Ac V4(1-Nal)/H9A-OH]",30xmore
2,"Ac-ICV(2-Igl)QDWGAHRCT-CONH2 (N-acetyl, C-amide, 2-Igl) [Ac-V42Igl/H9A]",39xmore
3,"Ac-ICV(2-Igl)QDWGAHRCT-COOH (N-acetyl, 2-Igl) [Ac-V42Igl/H9A-OH]",37xmore
4,"Ac-ICV(2-Nal)QDWGAHRCT-CONH2 (N-acetyl, C-amide, 2-Nal) [Ac-V4(2-Nal)/H9A]",99xmore
5,"Ac-ICV(2-Nal)QDWGAHRCT-COOH (N-acetyl, 2-Nal) [Ac V4(2-Nal)/H9A-OH]",38xmore
6,"Ac-ICV(Bpa)QDWGAHRCT-CONH2 (N-acetyl, C-amide, Bpa) [Ac-V4(Bpa)/H9A]",86xmore
7,"Ac-ICV(Bpa)QDWGAHRCT-COOH (N-acetyl, Bpa) [Ac-V4(Bpa)/H9A-OH]",49xmore
8,Ac-ICVDhtQDWGAHRCT-COOH [Ac-V4Dht/H9A-OH],5xmore
9,Ac-ICVVQDWGHHRCT-CONH2 [Ac-compstatin],3xmore
10,Ac-ICVWQD(5fW)GAHRCT-CONH2 [Ac-V4W/W7(5fW)/H9A],121xmore
11,Ac-ICVWQDWGAHRCT-CONH2 (Ac-ICVWQDWGAHRCT-NH2; cysteine pairing not given here) [Ac-V4W/H9A],45xmore
12,Ac-ICVWQDWGAHRCdT-COOH [Ac-V4W/H9A/T13dT-OH],55xmore
13,Ac-ICVYQDWGAHRCT-CONH2 [Ac-V4Y/H9A],14xmore
14,H-GICV(6fW)QD(6fW)GAHRCTN-COOH (6-fluoro-Trp residues) [+G/V4(6fW)/W7(6fW)H9A+N-OH],126xmore
